This note sets out measurements from patent US6486209B2, “Use for 1,3-propanediol derivatives” (Novartis AG, priority 1996, dated 2002).

The test system of assay [1] is Syrian hamster heart xenograft in rat. The assay is described as follows: In vivo heart xenotransplantation (hamster-to-rat). Conditions: 5-30 mg/kg/day orally. An excerpt: B. In vivo heart xenotransplantation (hamster-to-rat)
The hamster-into-rat xenograft combination is a so-called difficult concordant combination. […] This is visualized in histology by destruction of blood vessels, exsudation and extravasation of erythrocytes, and influx by polymorphonuclear granulocytes; often there are signs of hemorrhage and thrombosis. Once this rejection has been overcome by effective inhibition of antibody synthesis or complement inactivation, a cellular rejection can emerge later on. This is visualized in histology by influx of mononuclear cells, including lymphocytes, lymphoblastoid cells, and macrophages, and destruction of the myocyte parenchyma. The inhibition of cellular rejection requires more immuno-suppression than that of allografts. Congenitally athymic (rnu/rnu) rats lack a competent (thymus-dependent) cellular immune system and generally are unable to reject allografts. Such animals do reject a hamster xenograft within 3-4 days in a similar fashion as euthymic rats, indicative that (at least part of) anti-hamster antibody synthesis in rats occurs following a thymus-independent B-cell response. […]
The graft is monitored daily by palpation of the abdomen. […] Animals are subjected to autopsy; apart from the graft, weight and histology is assessed for thymus, spleen, liver, seminal vesicles and testes. […]

For assay [2], the system named is carotid artery allograft (DA donors, Lewis recipients). The assay is described as follows: Prevention of graft vessel disease: carotid artery transplantation. It counts as in vivo, rat. Conditions: 0.1 to 10 mg/kg alone or in combination with Cyclosporin A, 8 weeks, osmotic minipump s.c. or oral. As to the method:
A. Prevention of Graft Vessel Disease
Inbred rat strains DA (RT1^a, donors) and Lewis (RT1^1, recipients of allografts), weighing between 200 and 350 grams are used. The animals are allowed unrestricted access to food and water before and after the operation.
Carotid artery transplantation:
The rats are anaesthetised with isofluorane (Abbott), (4-5% for induction, 1.5-2% for maintenance) and 300 μg atropin sulphate is injected subcutaneously following the induction. The left carotid artery is dissected free. The artery is clamped proximally and distally and a segment of about 7-10 mm is removed. The gap is bridged by an allograft which had also been subjected to 45 min cold ischemia. Ethilon 10/o sutures are used. Finally the skin is closed with 4/0 sutures. If needed, an Alzet osmotic minipump (Alza Corp. Palo Alto, Calif.) is then implanted subcutaneously over the back (alternatively the animals are treated orally).
The rats are subject to one of the following treatments: A compound of formula I alone at the doses of 0.1 to 10 mg/kg, or in combination with Cyclosporin A at the dose of 0.03, 0.3, or 1 mg.kg^−1·day^−1 is administered for 8 weeks either by using Alzet osmotic minipumps implanted subcutaneously or alternatively by oral administration. […]

Structures are written as SMILES.

As for `CCCCCCCCc1ccc(CCC(N)(CO)CO)cc1` [Compound A, 2-amino-2-[2-(4-octylphenyl)ethyl]-1,3-propanediol], the graft survival result in assay [1] (athymic recipients) and in assay [1] (euthymic recipients) was “prolonged graft survival” each time. The graft infiltration entry in assay [2] is “significantly inhibit”. Besides, the neointima formation result in assay [2] is given as “significantly inhibit”.
